Source: patent US4410516A, “1-N(αHydroxy-ω-aminoalkanoyl) derivatives of 5,3',4'-trideoxy- or 5,3', 4'-trideoxy-6'-N- methyl- or 5, 3', 4',6"-tetradeoxykannamyci B and production thereof” (Zaidan Hojin Biseibutsu Kagaku Kenkyu Kai, priority 1981, dated 1983)
≈ marks a conversion by molar mass, not a printed value. Where two headings read alike, the source gives them in different places.

Legend:
Format in all cases: cell-based
[1] = system: Pseudomonas aeruginosa PST1; assay: Minimum inhibitory concentration, serial dilution on nutrient agar; conditions: PST1, nutrient agar, 37° C., 18 hours incubation, read-out: MIC
Escherichia coli W677 = assay: as above
[2] = system: Bacillus subtilis PCI 219; assay: as above; conditions: PCI219, 37° C., 18 hours incubation
[3] = system: Mycobacterium smegmatis ATCC 607; assay: as above; conditions: Mycolicibacterium smegmatis
Bacillus anthracis = assay: microbe, parasite or virus in culture; conditions: 18 h
Sarcina lutea PCI 1001 = assay: Minimum inhibitory concentration, serial dilution on nutrient agar; conditions: Micrococcus luteus, PCI1001; nutrient agar, 37° C., 18 hours incubation; read-out: MIC
[4] = system: Pseudomonas maltophilia GN907; assay: as above; conditions: Stenotrophomonas maltophilia, 37° C., 18 hours incubation
[5] = system: Micrococcus flavus FDA 16; assay: as above
[6] = system: Bacillus cereus ATCC 10702; assay: as above; conditions: ATCC10702, nutrient agar, 37° C., 18 hours incubation, read-out: MIC
Escherichia coli JR255 = assay: as above; conditions: JR255, nutrient agar, 37° C., 18 hours incubation, read-out: MIC
[7] = system: Pseudomonas aeruginosa No. 12; assay: as above
Serratia marcescens = assay: as above; conditions: 37° C., 18 hours incubation
[8] = system: Escherichia coli K-12 ML 1629; assay: as above; conditions: K12ML1629, nutrient agar, 37° C., 18 hours incubation, read-out: MIC
[9] = system: Staphylococcus aureus AP01; assay: as above; conditions: 37° C., 18 hours incubation
[10] = system: Klebsiella pneumoniae 22 #3038; assay: as above
[11] = system: Escherichia coli K-12 ML 1630; assay: as above; conditions: K12ML1630, 37° C., 18 hours incubation
Description: (§1) The minimum inhibitory concentration (mcg/ml) of 1-N-[(S)-4-amino-2-hydroxybutyryl]-5,3',4'-trideoxykanamycin B (abbreviated as AHB-trideoxyKMB), 1-N-[(RS)-3-amino-2-hydroxypropionyl]-5,3',4'-trideoxykanamycin B (abbreviated as AHP-trideoxy-KMB) and 1-N-[(S)-4-amino-2-hydroxybutyryl]-5,3',4',6"-tetradeoxykanamycin B (abbreviated as AHB-tetradeoxyKMB) of the formula (II) according to this invention as well as of the new compound 5,3',4',6"-tetradeoxykanamycin B (abbreviated as tetradeoxyKMB) of the formula (III) according to this invention against various microorganisms were determined according to serial dilution method on a nutrient agar medium at 37° C., the estimation being made after 18 hours incubation. For comparison purpose, the minimum inhibitory concentrations of habekacin were also determined in the same manner as stated above.
(§2) The minimum inhibitory concentrations (mcg/ml) of 1-N-[(S)-4-amino-2-hydroxybutyryl]-5,3',4'-trideoxy-6'-N-methylkanamycin B (abbreviated as AHB-trideoxyMKMB), 1-N-[(RS)-3-amino-2-hydroxypropionyl]-5,3',4'-trideoxy-6'-N-methylkanamycin B (abbreviated as AHP-trideoxyMKMB) and 1-N-[(S)-5-amino-2-hydroxyvaleryl]-5,3',4'-trideoxy-6'-N-methylkanamycin B (abbreviated as AHV-trideoxyMKMB) of the formula (IV) according to this invention as well as of the new compound 5,3',4'-trideoxy-6'-N-methylkanamycin B (abbreviated as trideoxyMKMB) of the formula (V) according to this invention against various microorganisms were determined according to serial dilution method on a nutrient agar medium at 37° C., the estimation being made after 18 hours incubation. For comparison purpose, the minimum inhibitory concentrations of 1-N-[(S)-4-amino-2-hydroxybutyryl]-3',4'-dideoxykanamycin B (ie. habekacin) were also determined in the same manner as stated above.

[12] = system: Shigella flexneri 4b JS11811; assay: as above; conditions: 4BJS11811, 37° C., 18 hours incubation
Description: as §1, §2

[13] = system: Escherichia coli K-12 C 600R/35; assay: as above; conditions: K12C600R/35, 37° C., 18 hours incubation
Description: as §1, §2

Shigella sonnei JS11746 = assay: as above; conditions: 37° C., 18 hours incubation
Description: as §1, §2

[14] = system: Escherichia coli K-12 J5R 11-2; assay: as above; conditions: K12J5R112, 37° C., 18 hours incubation
Description: as §1, §2

[15] = system: Pseudomonas aeruginosa TI-13; assay: as above
Escherichia coli K-12 = assay: as above; conditions: K12, nutrient agar, 37° C., 18 hours incubation, read-out: MIC
[16] = system: Escherichia coli JR66/W677; assay: as above
[17] = system: Escherichia coli K-12 R 388; assay: as above; conditions: K12R388, 18 h
[18] = system: Pseudomonas aeruginosa H11; assay: as above; conditions: H11, nutrient agar, 37° C., 18 hours incubation, read-out: MIC
Escherichia coli NIHJ = assay: as above; conditions: nutrient agar, 37° C., 18 hours incubation, read-out: MIC
[19] = system: Salmonella enteritidis 1891; assay: as above; conditions: Salmonella enterica
[20] = system: Escherichia coli K-12 LA 290 R55; assay: as above; conditions: K12LA290R55, 18 h
[21] = system: Pseudomonas aeruginosa 99; assay: as above
[22] = ATCC607, nutrient agar, 37° C., 18 hours incubation, read-out: MIC
[23] = nutrient agar, 37° C., 18 hours incubation, read-out: MIC
[24] = Pseudomonas aeruginosa, 99, 18 h
[25] = W677, nutrient agar, 37° C., 18 hours incubation, read-out: MIC
[26] = FDA16, nutrient agar, 37° C., 18 hours incubation, read-out: MIC
[27] = JR66/W677, nutrient agar, 37° C., 18 hours incubation, read-out: MIC

SMILES | MIC [1] [µg/mL] | MIC [2] [µg/mL] | MIC (Bacillus anthracis) [µg/mL] | MIC (Sarcina lutea PCI 1001) [µg/mL] | MIC [4] [µg/mL] | MIC [6] [µg/mL] | MIC (Escherichia coli JR255) [µg/mL] | MIC (Serratia marcescens) [µg/mL] | MIC [8] [µg/mL] | MIC [9] [µg/mL] | MIC [11] [µg/mL] | MIC [12] [µg/mL] | MIC [13] [µg/mL] | MIC (Shigella sonnei JS11746) [µg/mL] | MIC [14] [µg/mL] | MIC (Escherichia coli K-12) [µg/mL] | MIC [17] [µg/mL] | MIC [18] [µg/mL] | MIC (Escherichia coli NIHJ) [µg/mL] | MIC [20] [µg/mL] | also measured
CNC[C@@H]1CC[C@@H](N)[C@@H](O[C@H]2C[C@@H](O[C@H]3O[C@H](CO)[C@@H](O)[C@H](N)[C@H]3O)[C@H](NC(=O)[C@@H](O)CCN)C[C@@H]2N)O1 [AHB-trideoxyMKMB, 1-N-[(S)-4-amino-2-hydroxybutyryl]-5,3',4'-trideoxy-6'-N-methylkanamycin B] | 12.5 (≈ 22.7 µM) | < 0.2 | < 0.2 | 0.39 (≈ 0.708 µM) | > 100 | 0.39 (≈ 0.708 µM) | 0.78 (≈ 1.42 µM) | 6.25 (≈ 11.4 µM) | 0.78 (≈ 1.42 µM) | 0.39 (≈ 0.708 µM) | 1.56 (≈ 2.83 µM) | 0.78 (≈ 1.42 µM) | 1.56 (≈ 2.83 µM) | 3.13 (≈ 5.68 µM) | 1.56 (≈ 2.83 µM) | 0.78 (≈ 1.42 µM) | 0.39 (≈ 0.708 µM) | 12.5 (≈ 22.7 µM) | 0.78 (≈ 1.42 µM) | 1.56 (≈ 2.83 µM) | MIC (Escherichia coli W677; W677, 18 h): 1.56 µg/mL (≈ 2.83 µM); MIC [3, 22]: < 0.2 µg/mL; MIC ([5]; FDA16, 18 h): 1.56 µg/mL (≈ 2.83 µM); MIC ([7]; NO.12, 18 h): 1.56 µg/mL (≈ 2.83 µM); MIC ([10]; 18 h): 1.56 µg/mL (≈ 2.83 µM); MIC ([15]; TI13, 18 h): 1.56 µg/mL (≈ 2.83 µM); MIC ([16]; JR66/W677, 18 h): 1.56 µg/mL (≈ 2.83 µM); MIC [19, 23]: 0.78 µg/mL (≈ 1.42 µM); MIC [21, 24]: 3.13 µg/mL (≈ 5.68 µM)
NCC[C@H](O)C(=O)N[C@@H]1C[C@H](N)[C@@H](O[C@H]2O[C@H](CN)CC[C@H]2N)C[C@H]1O[C@H]1O[C@H](CO)[C@@H](O)[C@H](N)[C@H]1O [AHB-trideoxyKMB, 1-N-[(S)-4-amino-2-hydroxybutyryl]-5,3',4'-trideoxykanamycin B] | 6.25 (≈ 11.6 µM) | < 0.2 | < 0.2 | 0.39 (≈ 0.727 µM) | > 100 | 0.78 (≈ 1.45 µM) | 0.39 (≈ 0.727 µM) | 25 (≈ 46.6 µM) | 1.56 (≈ 2.91 µM) | 0.39 (≈ 0.727 µM) | 1.56 (≈ 2.91 µM) | 3.13 (≈ 5.83 µM) | 0.78 (≈ 1.45 µM) | 3.13 (≈ 5.83 µM) | 0.78 (≈ 1.45 µM) | 0.78 (≈ 1.45 µM) | 0.78 (≈ 1.45 µM) | 6.25 (≈ 11.6 µM) | 0.78 (≈ 1.45 µM) | 3.13 (≈ 5.83 µM) | MIC (Escherichia coli W677; [25]): 0.78 µg/mL (≈ 1.45 µM); MIC [3, 22]: 0.2 µg/mL (≈ 0.373 µM); MIC [5, 26]: 1.56 µg/mL (≈ 2.91 µM); MIC ([7]; NO.12, 18 h): 3.13 µg/mL (≈ 5.83 µM); MIC ([10]; 18 h): 3.13 µg/mL (≈ 5.83 µM); MIC ([15]; TI13, 18 h): 3.13 µg/mL (≈ 5.83 µM); MIC [16, 27]: 1.56 µg/mL (≈ 2.91 µM); MIC ([19]; 18 h): 3.13 µg/mL (≈ 5.83 µM); MIC [21, 24]: 3.13 µg/mL (≈ 5.83 µM)
CNC[C@@H]1CC[C@@H](N)[C@@H](O[C@H]2C[C@@H](O[C@H]3O[C@H](CO)[C@@H](O)[C@H](N)[C@H]3O)[C@H](N)C[C@@H]2N)O1 [TrideoxyMKMB, 5,3',4'-trideoxy-6'-N-methylkanamycin B] | > 100 | < 0.2 | 0.78 (≈ 1.74 µM) | 25 (≈ 55.6 µM) | > 100 | 12.5 (≈ 27.8 µM) | 100 (≈ 222 µM) | 100 (≈ 222 µM) | 25 (≈ 55.6 µM) | 25 (≈ 55.6 µM) | 25 (≈ 55.6 µM) | 25 (≈ 55.6 µM) | 12.5 (≈ 27.8 µM) | 25 (≈ 55.6 µM) | 25 (≈ 55.6 µM) | 12.5 (≈ 27.8 µM) | 12.5 (≈ 27.8 µM) | 25 (≈ 55.6 µM) | 12.5 (≈ 27.8 µM) | 100 (≈ 222 µM) | MIC (Escherichia coli W677; [25]): 12.5 µg/mL (≈ 27.8 µM); MIC ([3]; ATCC607, 18 h): 6.25 µg/mL (≈ 13.9 µM); MIC [5, 26]: 100 µg/mL (≈ 222 µM); MIC ([7]; NO.12, nutrient agar, 37° C., 18 hours incubation, read-out: MIC): 25 µg/mL (≈ 55.6 µM); MIC [10, 23]: 100 µg/mL (≈ 222 µM); MIC ([15]; TI13, nutrient agar, 37° C., 18 hours incubation, read-out: MIC): 12.5 µg/mL (≈ 27.8 µM); MIC [16, 27]: 100 µg/mL (≈ 222 µM); MIC [19, 23]: 25 µg/mL (≈ 55.6 µM); MIC ([21]; Pseudomonas aeruginosa, 99, nutrient agar, 37° C., 18 hours incubation, read-out: MIC): 50 µg/mL (≈ 111 µM)
